This is an account of results in patent publication US20120121574A1, “ANTIMICROBIAL, ANTIVIRAL, ANTICANCER AND IMMUNOMODULATORY PEPTIDES AND USES THEREFORE” (priority 2010, published 2012).

The test system of one data set is U937 cell line. The experiment in a line: annexine-V/propidium iodide flow cytometry on U937. The settings on record: annexine-V/propidium iodide staining.
Data set [1] deals with C. albicans AIDS68 strain. The experiment in a line: murine model of vaginal candidiasis, fluconazole-resistant strain. Type of data set: in vivo, mice. The settings on record: peptide 25 micrograms intravaginally 1, 24 and 48 hours after challenge. On the procedure:
(§1) In vivo activity of N10K against vaginal candidiasis caused in mice by the fluconazole-resistant C. albicans AIDS68 strain. The anticandidal therapeutic activity of N10K was evaluated in a murine model of vaginal candidiasis. Groups of 5 mice were injected subcutaneously with 0.02 mg of estradiol benzoate in 100 μl of saline solution, […] and weekly thereafter. Then, mice given intravaginally 10^6 cells of the fluconazole-resistant C. albicans strain AIDS68 in 20 μl of saline solution on day 0 and were sampled for intravaginal CFU. N10K, 25 micrograms, was intravaginally administered in comparison to an irrelevant peptide (SP) as control, 1, 24 and 48 hours after the infectious challenge and sampled for intravaginal CFU at days 1, 2, 5, 7, 14, 21, and 28. The statistical significance was assessed by two-tailed Student's t test. On days 1, 2, 5, 7, 14, and 21, the differences in the CFU vaginal counts between N10K treated, untreated, SP treated and fluconazole treated animals were statistically significant (P<0.05) (Table VI).
as §1, with “T11F” for “N10K”, “T11F,” for “N10K,”, “VIII).” for “VI).”

For data set [2], the system named is C. albicans SC5314 strain. The settings on record: for EC50: SC5314, 6 h; for EC50asd/EC50N10K: Table IX. How it is done: In vitro activity of N10K against C. albicans SC5314 strain. The candidacidal activity of N10K peptide against C. albicans was assessed by a conventional colony forming unit (CFU) assay as previously described (Polonelli et al., 2003; Manfredi et al., 2005). Briefly, cells of C. albicans SC5314 were incubated at 37° C. for 6 hours (hr) in the presence of N10K at the concentration indicated of 20, 12.5 or 6.25 microgram/ml, or in distilled water as control (C). After incubation, cell suspensions were plated on Sabouraud dextrose agar and incubated at 30° C. for 48 hours when CFU were counted (** P<0.01 for N10K treated versus untreated cells, by t test). […]
The alanine-substituted derivatives (asd), defined according to the position held by the alanine-substituted aminoacid, were tested against C. albicans by a conventional colony forming unit (CFU) as previously described (Polonelli et al., 2003). Briefly, cells of C. albicans SC5314 were incubated at 37° C. for 6 hours in the presence of N10K or N10K asd at different scalar concentrations or distilled water as control. After incubation, cell suspensions were plated on Sabouraud dextrose agar and incubated at 30° C. for 48 hours when CFU were counted. Based on several independent replications, the EC50 value of each peptide was calculated by nonlinear regression analysis using Graph Pad Prism 4.01 software, San Diego, Calif., USA. […]
In vitro microbicidal activity of N10K derivative with 2 amino acid substitutions, or 80% sequence identity with native N10K, namely peptide Seq Id. No. 25 was tested against Candida albicans SC5314 as determined by Colony Forming Unit assay.

In data set [3] the test system is peritoneal murine macrophages (PM). The data set is described as follows: in vitro immunomodulatory activity on murine peritoneal macrophages (PM). Type of data set: cell-based, mouse. As to conditions: mouse peritoneal macrophages, FIG. 73. On the procedure: In vitro immunomodulatory activity of MoA VHCDR3 on murine immune cells. FIGS. 47-51 are graphs showing TNF-α and IL-6 production by PM and PMN stimulated with MoA CDRs and mouse MoA VHCDR3 uptake by different cell populations. Cells were cultured in the presence or absence (NS) of human and/or mouse CDRs, lipopolisaccharide (LPS), or negative control peptide (NC) (all 10 micrograms/ml) for 18 hr. Both PM and PMN cell populations were 5×10^6/ml. After incubation, TNF-α and IL-6 levels were evaluated in culture supernatants by specific ELISA assays (* P<0.05 treated vs untreated cells, n=7). In FIG. 51, dendritic cells (DC), PM, PMN, and T cells (all 1×10^6/ml) were incubated for 1 hr in the presence or absence (NS) of biotinylated (b)-MoA VHCDR3 or b-NC (both 10 micrograms/ml). After incubation, permeabilized cells were reacted with FITC-labelled mAb to biotin (b) and analyzed by FACScan flow cytometry. Data are reported as the percentage of positive cells *, P<0.05 (b-VHCDR3 treated vs untreated cells, n=5). Error bars, s.e.m. FIGS. 52A and B show graphs and colored cell staining micrograph of kinetic of VHCDR3 uptake by PM. PM (1×10^6/ml) were incubated for different times with b-VHCDR3 or b-NC (all 10 micrograms/ml). After incubation, permeabilized cells were reacted with FITC-labelled mAb to biotin and analyzed by FACScan flow cytometry. Data are reported as the mean fluorescence intensity (MFI) and percentage of positive cells (FIG. 52A) (* P<0.05 b-VHCDR3-treated vs untreated cells, n=7). Error bars, s.e.m. In selected experiments, cells were incubated for 1 hr as above described, reacted with FITC-labelled mAb to biotin in the presence of Evans' Blue as a counter stain, and subsequently examined under fluorescent light microscopy (FIG. 52B). Note the green fluorescence of b-VHCDR3 treated cells. Original magnification 20×. In FIGS. 53 and 54 is shown the phospho-Akt activation and TNF-α production in PM stimulated with MoA VHCDR3. PM (3×10^6/ml) were stimulated for 1 hr in the presence or absence (NS) of MoA VHCDR3, LPS, an irrelevant control peptide (NC) or a scrambled peptide (SP) (all 10 micrograms/ml). After incubation, cell lysates were subjected to Western blotting. Membranes were incubated with Abs to pAkt and Akt; pAkt was normalized against Akt (FIG. 53)*, P<0.05 (treated vs untreated cells, n=5). […] PM (5×10^6/ml) were stimulated for 18 hr as above described. After incubation, TNF-α level was evaluated in culture supernatants by specific ELISA assays. (FIG. 54)*, P<0.05 (treated vs untreated cells, n=5). In FIGS. 55 and 56 is shown the phospho-IkBα activation and TNF-α gene expression in PM stimulated with MoA VHCDR3. PM (3×10^6/ml) were stimulated for 1 hr in the presence or absence (NS) of wortmannin (4 nM), MoA VHCDR3, LPS or NC (all 10 micrograms/ml). After incubation, cell lysates were subjected to Western blotting. Membranes were incubated with Abs to pIkBα and IkBα; pIkBα was normalized against IkBα. (FIG. 55)*, P<0.05 (treated versus untreated cells, n=5); †, P<0.05 (wortmannin-treated vs wortmannin-untreated cells, n=5). For testing the expression level of TNF-α gene, PM (1×10^6/ml) were cultured for 1, 6 and 18 hr as above described. After incubation, total RNA was isolated and analyzed for mRNA expression with RT-PCR (FIG. 56). Transcript copy numbers were determined by qPCR using cDNA as a template. Copy numbers were normalized against the copy number of the GADPH gene (B). […]

In data set [4] the test system is C. neoformans 6995 strain. As to conditions: 6995 strain, 6 h.
Experimental: After the incubation period, the cell suspensions have been plated on Sabouraud dextrose agar, then incubated at 30° C. and observed for CFU enumeration after 48 hours.

Where a SMILES comes first, the peptide text is derived from it. Where no end group is shown, it is not given here.

Turning to `CC(C)C[C@H](NC(=O)[C@H](C)NC(=O)[C@H](CCC(=O)O)NC(=O)[C@@H](N)Cc1c[nH]cn1)C(=O)O` [Peptide H4L, H E A L] (H-HEAL-OH), in the data set with U937 cell line, the “induction of apoptotic/necrotic effects” value was “exclude the induction of apoptotic/necrotic effects”.
As for `OC(Cn1cncn1)(Cn1cncn1)c1ccc(F)cc1F` [fluconazole], the CFU vaginal counts is on record as greater than 100 in data set [1] (Day 0); greater than 100 in data set [1] (Day 1); 93 ± 4.3 in data set [1] (Day 2); 61 ± 2.5 in data set [1] (Day 5); 44 ± 2.9 in data set [1] (Day 7); 18.7 ± 3.8 in data set [1] (Day 14). Further, the CFU vaginal counts was determined as 11.7 ± 0.7 in data set [1] (Day 21) and 0 in data set [1] (Day 28).
What is called EC50 is the concentration giving half of the maximal effect. In data set [2], “AQVSLTCLVK [asd N1A N10K, A Q V S L T C L V K]” showed an EC50 of 587 nM and an EC50asd/EC50N10K of 0.58.
Turning to “G Q A G N L W F A Y (GQAGNLWFAY) [Peptide A3]”, the “TNF-α-inducing activity compared with VHCDR3” value in data set [3] was “either unchanged or slightly reduced”.
With “G Q Y G A L W F A Y (GQYGALWFAY) [Peptide A5]”, the “TNF-α-inducing activity compared with VHCDR3” value in data set [3] is on record as “either unchanged or slightly reduced”.
Regarding “N Q V S L T C L V A (NQVSLTCLVA) [asd K10A]”, the “percentual inhibition of C. albicans growth” value in data set [2] (at the concentration of 250 micrograms/ml) is reported as “* EC50 was not determined, asd K10A showed a percentual inhibition of C. albicans growth equal to 69.04 at the concentration of 250 micrograms/ml”.
In data set [2], “NQASLTCLVK [asd V3A N10K, N Q A S L T C L V K]” yielded a half-maximal effective concentration (EC50) of 5930 nM and an EC50asd/EC50N10K of 5.91.
Take “NQVALTCLVK [asd S4A N10K, N Q V A L T C L V K]”: in data set [2], the concentration giving a half-maximal response (EC50) came out at 2390 nM and the EC50asd/EC50N10K is recorded as 2.38.
Taken in the same sequence, the figures for “NQVSATCLVK [asd L5A N10K, N Q V S A T C L V K]” were 885 nM and 0.88.
Regarding “NQVSATCSVK [L5A, L8S N10K, N Q V S A T C S V K]”, the response in data set [2] was half-maximal at 43200 nM (EC50). Besides, in data set [2] (Table III, in vitro, Fungus), the Activity result is “cidal”.
In data set [2], “NQVSLACLVK [asd T6A N10K, N Q V S L A C L V K]” returned an EC50 of 4880 nM and an EC50asd/EC50N10K of 4.86.
Taken in the same sequence, the figures for “NQVSLTALVK [asd C7A N10K, N Q V S L T A L V K]” were 54900 nM and 54.71.
Taken in the same sequence, the figures for “NQVSLTCAVK [asd L8A N10K, N Q V S L T C A V K]” were 744 nM and 0.74.
Regarding “NQVSLTCLAK [asd V9A N10K, N Q V S L T C L A K]”, in data set [2], the 50% effective concentration (EC50) is 1780 nM and the EC50asd/EC50N10K came out at 1.77.
With “TCRVDHRGLTF [Peptide T11F, T C R V D H R G L T F]”, the figures for the 50% effective concentration (EC50) in data set [4] and in data set [2] were 2690 nM and 1600 nM, respectively. For the same molecule, in the data set on U937 cell line, the “induction of apoptotic/necrotic effects” value is “exclude the induction of apoptotic/necrotic effects”.
